The target in assay [1] is T1, hDAGLα (Homo sapiens, UniProt Q9Y4D2).
T1 sequence (Q9Y4D2 1-1042): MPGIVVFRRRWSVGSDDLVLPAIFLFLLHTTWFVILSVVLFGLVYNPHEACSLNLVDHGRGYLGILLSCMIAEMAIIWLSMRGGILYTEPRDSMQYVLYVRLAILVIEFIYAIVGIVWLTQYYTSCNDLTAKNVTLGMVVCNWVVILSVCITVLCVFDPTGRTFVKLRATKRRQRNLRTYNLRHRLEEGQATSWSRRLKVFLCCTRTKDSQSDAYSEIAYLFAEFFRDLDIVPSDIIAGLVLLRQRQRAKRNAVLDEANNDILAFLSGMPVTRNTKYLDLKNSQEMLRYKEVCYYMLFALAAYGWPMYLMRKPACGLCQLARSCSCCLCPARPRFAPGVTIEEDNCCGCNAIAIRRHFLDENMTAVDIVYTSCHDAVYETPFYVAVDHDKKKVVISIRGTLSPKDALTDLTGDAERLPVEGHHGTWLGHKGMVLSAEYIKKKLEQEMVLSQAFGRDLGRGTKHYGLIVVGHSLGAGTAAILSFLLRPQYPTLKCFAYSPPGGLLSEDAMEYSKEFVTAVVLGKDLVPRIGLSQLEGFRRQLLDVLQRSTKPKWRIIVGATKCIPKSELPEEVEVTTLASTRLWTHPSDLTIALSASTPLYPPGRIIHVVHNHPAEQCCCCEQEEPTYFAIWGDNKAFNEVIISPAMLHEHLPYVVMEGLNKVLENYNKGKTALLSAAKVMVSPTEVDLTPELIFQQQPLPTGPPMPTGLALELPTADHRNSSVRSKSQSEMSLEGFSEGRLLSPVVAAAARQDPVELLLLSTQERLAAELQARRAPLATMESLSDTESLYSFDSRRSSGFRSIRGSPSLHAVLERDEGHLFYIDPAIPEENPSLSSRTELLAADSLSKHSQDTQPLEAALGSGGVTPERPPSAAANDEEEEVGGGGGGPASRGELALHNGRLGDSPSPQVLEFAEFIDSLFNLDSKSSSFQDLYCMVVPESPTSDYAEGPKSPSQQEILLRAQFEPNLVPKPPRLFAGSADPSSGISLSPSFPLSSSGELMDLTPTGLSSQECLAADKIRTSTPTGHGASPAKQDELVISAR
The experiment in a line: Evaluation of FRET reporter substrates for enzymatic hydrolysis. Format: biochemical. The arrangement: V5; His; expressed in transfected cells; host or cells: HEK293T, transient; crude cell lysate or membrane preparation. From the text: Reporter compounds as substrates for hDAGLα activity with HEK293T cell lysates in the presence of 10% DMSO are shown. A) Pyrenyl analogs (17)-(19), (21), and (22) (EX 320 nm, EM 400 nm). B) NBD analog (20) (EX 485 nm, EM 535 nm).
A convenient in vitro fluorometric esterase assay utilizing the BioTek Instruments Synergy™ HT Multi-Mode Microplate 96-well reader was developed that measured nanomolar concentrations of fluorescent reaction product.

Assay [2] deals with T2, Pancreatic Lipase (Porcine) (Sus scrofa, UniProt P00591).
T2 construct: purchased Sigma L3126
T2 sequence (P00591 1-450): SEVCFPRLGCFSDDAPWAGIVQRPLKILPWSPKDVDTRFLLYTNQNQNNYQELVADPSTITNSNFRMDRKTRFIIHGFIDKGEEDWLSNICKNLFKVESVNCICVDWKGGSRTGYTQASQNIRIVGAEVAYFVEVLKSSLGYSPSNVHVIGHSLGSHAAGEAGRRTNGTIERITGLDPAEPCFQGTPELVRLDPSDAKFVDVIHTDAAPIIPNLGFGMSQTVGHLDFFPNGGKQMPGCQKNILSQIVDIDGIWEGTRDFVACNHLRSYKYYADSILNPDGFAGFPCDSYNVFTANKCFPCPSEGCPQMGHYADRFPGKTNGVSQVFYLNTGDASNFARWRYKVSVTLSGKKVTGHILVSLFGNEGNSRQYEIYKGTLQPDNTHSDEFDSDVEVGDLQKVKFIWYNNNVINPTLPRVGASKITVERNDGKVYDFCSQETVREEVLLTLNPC
The assay is classed as biochemical.

The subject of assay [3] is Lipoprotein Lipase (Bacterial). Format: biochemical, Pseudomonas sp.
The next assay has as its target T3, MAGL (Homo sapiens, UniProt Q99685).
T3 sequence (Q99685 1-303): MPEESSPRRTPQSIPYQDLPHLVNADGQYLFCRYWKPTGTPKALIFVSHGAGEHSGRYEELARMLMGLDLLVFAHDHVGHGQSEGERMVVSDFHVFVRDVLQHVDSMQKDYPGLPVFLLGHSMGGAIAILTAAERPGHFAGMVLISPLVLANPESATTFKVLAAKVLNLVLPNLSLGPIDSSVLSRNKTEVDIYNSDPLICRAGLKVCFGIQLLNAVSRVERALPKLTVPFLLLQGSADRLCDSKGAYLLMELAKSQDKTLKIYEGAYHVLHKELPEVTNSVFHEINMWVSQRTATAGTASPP
The experiment in a line: hMAGL coumarin substrate fluorescence assay. Format: biochemical. The arrangement: The N-terminal his-tagged full length human monoacylglycerol lipase used; His (N); made in house; host or cells: E. coli.

A further assay deals with T4, rFAAH (Rattus norvegicus, UniProt P97612).
T4 construct: His (N); made in house; host or cells: E. coli (cell line provided by the Cravatt group)
T4 sequence (P97612 30-579 limits assumed): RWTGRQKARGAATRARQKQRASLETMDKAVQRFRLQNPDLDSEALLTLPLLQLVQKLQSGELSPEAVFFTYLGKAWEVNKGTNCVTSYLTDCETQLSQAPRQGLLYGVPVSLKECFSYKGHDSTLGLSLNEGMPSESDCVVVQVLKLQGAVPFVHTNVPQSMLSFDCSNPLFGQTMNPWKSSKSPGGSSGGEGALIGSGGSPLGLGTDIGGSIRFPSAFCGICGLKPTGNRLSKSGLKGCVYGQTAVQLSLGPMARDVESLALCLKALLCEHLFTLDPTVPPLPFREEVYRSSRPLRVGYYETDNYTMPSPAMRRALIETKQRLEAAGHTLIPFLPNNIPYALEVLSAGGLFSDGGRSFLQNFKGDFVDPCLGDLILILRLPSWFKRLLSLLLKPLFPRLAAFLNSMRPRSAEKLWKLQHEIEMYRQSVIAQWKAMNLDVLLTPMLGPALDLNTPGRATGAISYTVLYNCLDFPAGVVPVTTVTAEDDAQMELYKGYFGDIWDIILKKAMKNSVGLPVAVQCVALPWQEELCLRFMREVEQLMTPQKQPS
The experiment in a line: rFAAH coumarin substrate fluorescence assay. Format: biochemical.

The next assay concerns the target T5, mDAGLα (Mus musculus, UniProt Q6WQJ1).
T5 sequence (Q6WQJ1 1-1044): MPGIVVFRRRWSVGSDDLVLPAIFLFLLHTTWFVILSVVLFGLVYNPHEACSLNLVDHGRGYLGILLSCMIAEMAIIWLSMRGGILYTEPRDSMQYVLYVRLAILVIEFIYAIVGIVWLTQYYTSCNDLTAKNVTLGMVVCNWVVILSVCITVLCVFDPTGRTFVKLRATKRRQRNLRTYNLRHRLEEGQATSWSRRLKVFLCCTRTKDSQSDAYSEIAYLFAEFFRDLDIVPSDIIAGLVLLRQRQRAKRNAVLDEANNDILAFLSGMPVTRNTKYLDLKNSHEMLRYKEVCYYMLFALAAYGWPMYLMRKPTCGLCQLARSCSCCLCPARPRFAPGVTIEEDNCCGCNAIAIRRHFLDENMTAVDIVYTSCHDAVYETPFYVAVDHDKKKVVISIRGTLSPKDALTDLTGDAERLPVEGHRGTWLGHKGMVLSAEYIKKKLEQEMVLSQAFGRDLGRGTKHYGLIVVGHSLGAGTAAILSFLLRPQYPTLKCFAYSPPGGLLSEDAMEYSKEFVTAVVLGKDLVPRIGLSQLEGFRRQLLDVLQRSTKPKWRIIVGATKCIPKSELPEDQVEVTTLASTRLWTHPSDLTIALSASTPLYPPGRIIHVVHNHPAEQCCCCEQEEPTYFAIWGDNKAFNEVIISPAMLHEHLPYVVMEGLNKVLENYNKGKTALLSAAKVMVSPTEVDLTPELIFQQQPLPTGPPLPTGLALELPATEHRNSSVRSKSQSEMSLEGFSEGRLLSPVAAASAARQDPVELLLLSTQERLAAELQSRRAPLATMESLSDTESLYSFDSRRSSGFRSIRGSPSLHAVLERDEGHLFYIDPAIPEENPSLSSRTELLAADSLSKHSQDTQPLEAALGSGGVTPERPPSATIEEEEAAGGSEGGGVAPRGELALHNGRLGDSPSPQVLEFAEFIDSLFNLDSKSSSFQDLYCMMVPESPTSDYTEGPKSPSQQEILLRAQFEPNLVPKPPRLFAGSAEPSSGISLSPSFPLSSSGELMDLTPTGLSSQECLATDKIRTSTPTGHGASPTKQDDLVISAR
The experiment in a line: Radio-TLC assay with [14C]SAG substrate, mDAGLα.

The target in assay [4] is T1, hDAGLα.
Another assay concerns FAAH. Particulars: read-out: IC50 FAAH with radiolabeled N-arachidonoylethanolamine (anandamide) substrate; cited from earlier work.

Where two headings read alike, the source gives them in different places. Where only a bound is given, the exact number is not on record here.

In general, inhibition refers to how much of the control response was suppressed. As a reminder, the IC50 is the concentration needed to halve the response being measured.

As to “1-(5-Dimethyloxazolinyloxyl)stearoyl-2-pyrenebutanoyl-3-methyl-sn-glycerol [Compound 21]”, the “quality as substrate for enzymatic hydrolysis” value on hDAGLα [1] is “poor substrates”.

Take “1-(16-Dimethyloxazolinyloxyl)stearoyl-2-pyrenebutanoyl-3-methyl-sn-glycerol [Compound 22]”: at hDAGLα [1], the “quality as substrate for enzymatic hydrolysis” value is on record as “poor substrates”.

As to `CCCCCCCCCCCCCC1CC(=O)O1` (racemic) [Compound 9, 4-Tridecyloxetan-2-one], the inhibition at 10 µM in assay [2] (read-out: Pancreatic Lipase (Porcine) inhibition at 10 μM (%)) came out at 36%. Also, in assay [3] (10 μM), the “Lipoprotein Lipase (Bacterial) inhibition at 10 μM (%)” value is less than 0%.

As to `CCCCCCC[C@@H]1OC(=O)[C@H]1CCCCCC` (relative stereo) [Compound 10, trans-3-hexyl-4-heptyloxetan-2-one], the inhibition at 10 µM on MAGL (read-out: hMAGL inhibition at 10 μM (%)) was 56%. Moreover, in assay [3] (10 μM), the “Lipoprotein Lipase (Bacterial) inhibition at 10 μM (%)” value turned out to be 67%.

On to `CCCCCCC[C@H]1OC(=O)[C@H]1CCCCCC` (relative stereo) [Compound 11, cis-3-Hexyl-4-heptyloxetan-2-one], for which the “Lipoprotein Lipase (Bacterial) inhibition at 10 μM (%)” value in assay [3] (10 μM) turned out to be 33%.

In the case of `CCCCCCCCCCC[C@@H](C[C@@H]1OC(=O)[C@H]1CCCCCC)OC(=O)[C@@H](NC=O)[C@@H](C)CC` [Compound 4], the “Pancreatic Lipase (Porcine) inhibition at 10 μM (%)” value in assay [2] (10 μM) is 99%. The “hMAGL inhibition at 10 μM (%)” value on MAGL is 16%. Moreover, at rFAAH (10 μM), the “rFAAH inhibition at 10 μM (%)” value turned out to be 7%. In addition, the “Lipoprotein Lipase (Bacterial) inhibition at 10 μM (%)” value in assay [3] (10 μM) was 84%. On mDAGLα, the “mDAGLα inhibition at 10 nM (%)” value amounted to 69%, the “mDAGLα inhibition at 100 nM (%)” value is on record as 80%, the “mDAGLα inhibition at 1000 nM (%)” value was found to be 96% and the “mDAGLα inhibition at 10000 nM (%)” value stood at 96%. For the same compound, the “hDAGLα inhibition at 10 μM (0.05% Triton X-100) (%), FRET” value at hDAGLα [4] (10 μM) amounted to 99%. Besides, the “hDAGLα inhibition at 10 μM detergent free (%), FRET” value at hDAGLα [4] (10 μM, detergent free) is given as 92%.

As for `CCCCCCCCCCC[C@@H](C[C@@H]1OC(=O)[C@H]1CCCCCC)OC(=O)[C@@H](NC=O)[C@H](C)CC` [Compound 5], the “Pancreatic Lipase (Porcine) inhibition at 10 μM (%)” value in assay [2] (10 μM) is 98%. Also, the “hMAGL inhibition at 10 μM (%)” value at MAGL amounted to 1%. At rFAAH (10 μM), the “rFAAH inhibition at 10 μM (%)” value was 3%. Also, the “Lipoprotein Lipase (Bacterial) inhibition at 10 μM (%)” value in assay [3] (10 μM) was found to be 61%. Also, on mDAGLα, the “mDAGLα inhibition at 10 nM (%)” value was 60%, the “mDAGLα inhibition at 100 nM (%)” value is listed as 61%, the “mDAGLα inhibition at 1000 nM (%)” value came out at 88% and the “mDAGLα inhibition at 10000 nM (%)” value came to 100%. Also, the “hDAGLα inhibition at 10 μM (0.05% Triton X-100) (%), FRET” value at hDAGLα [4] (10 μM) is on record as 99%. Moreover, on hDAGLα [4] (10 μM, detergent free), the “hDAGLα inhibition at 10 μM detergent free (%), FRET” value worked out at 92%.

As to `O=C(Oc1ccc([N+](=O)[O-])cc1)N1CCN(Cc2cccc(Oc3ccccc3)c2)CC1` [JZL195], the “Pancreatic Lipase (Porcine) inhibition at 10 μM (%)” value in assay [2] worked out at 43%. Besides, the “Lipoprotein Lipase (Bacterial) inhibition at 10 μM (%)” value in assay [3] is less than 0%. The “mDAGLα inhibition at 10000 nM (%)” value at mDAGLα is on record as 10%. At hDAGLα [4], the “hDAGLα inhibition at 10 μM detergent free (%), FRET” value is on record as 64, 55° % and the “hDAGLα inhibition at 10 μM detergent free (%), FRET, marker °” value is given as 64, 55° %.

`CCCCCCCCCCCCCCCCS(=O)(=O)F` [n-C16H33SO2F, Palmitylsulfonyl fluoride]: on rFAAH, the “rFAAH inhibition at 10 μM (%)” value is on record as 100^E %. Besides, the IC50 on rFAAH (read-out: rFAAH apparent IC50 (8 pt, 95% confidence)) was 6.3 nM; in the assay with FAAH, 7 nM.

The record behind these values is US20150099800A1, “NOVEL LIPASE INHIBITORS, REPORTER SUBSTRATES AND USES THEREOF” (Northeastern University, priority 2012, published 2015).
